Laboratory results taken from US10899738B2 (THE REGENTS OF THE UNIVERSITY OF MICHIGAN, priority 2016, dated 2021).
Like-named read-outs stand apart in the source and are kept apart here.

Columns and labels:
menin protein = menin protein (Homo sapiens (Human), UniProt O00255); assay: biochemical; assay type: binding; conditions: FP competitive binding; menin protein 4 nM, FAM-MM2 probe 2 nM; read-out: Menin Binding Affinity IC50
Outline: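 Competitive fluorescence polarization assay using FAM-labelled MLL1 peptide probe FAM-MM2 (2 nM final) preincubated with menin (4 nM final) in PBS with 0.02% bovine γ-globulin, 4% DMSO and 0.01% Triton X-100. Compounds were added and incubated 30 min at room temperature. IC50 came from nonlinear regression of competition curves, with Ki also derived.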

[1] = Cell growth inhibition, CellTiter-Glo Luminescent Cell Viability Assay; assay type: cell-based
Procedure: Cell growth inhibitory activity of representative menin inhibitors was determined using CellTiter-Glo® Luminescent Cell Viability Assay. Cells were seeded in 384-well white opaque cell culture plates at a density of 2,000 cells/well with serially diluted compounds and incubated at 37° C. in an atmosphere of 95% air and 5% CO2 for 4 days. Cell viability was determined using the CellTiter-Glo® Luminescent Cell Viability Assay Kit (Promega, Madison, Wis.) according to the manufacture's instruction. Briefly, a volume of CellTiter-Glo® Reagent equal to the volume of cell culture medium was added to each well, and then the plates were incubated at room temperature for 10-20 minutes. The luminescent signal was measured using a Tecan Infinite M1000 multimode microplate reader (Tecan, Morrisville, N.C.). The half maximal inhibitory concentration (IC50) was calculated using the GraphPad Prism 5 software (GraphPad Software, La Jolla, Calif.).

[2] = MOLM-13, 96 h, read-out: Cell Growth Inhibition IC50 (μM) MOLM13, MOLM13 cells, 4 days, CellTiter-Glo
[3] = MV4-11, 96 h, read-out: Cell Growth Inhibition IC50 (μM) MV4, 11, MV4, 11 cells, 4 days, CellTiter-Glo

menin protein, sequence (O00255 whole entry): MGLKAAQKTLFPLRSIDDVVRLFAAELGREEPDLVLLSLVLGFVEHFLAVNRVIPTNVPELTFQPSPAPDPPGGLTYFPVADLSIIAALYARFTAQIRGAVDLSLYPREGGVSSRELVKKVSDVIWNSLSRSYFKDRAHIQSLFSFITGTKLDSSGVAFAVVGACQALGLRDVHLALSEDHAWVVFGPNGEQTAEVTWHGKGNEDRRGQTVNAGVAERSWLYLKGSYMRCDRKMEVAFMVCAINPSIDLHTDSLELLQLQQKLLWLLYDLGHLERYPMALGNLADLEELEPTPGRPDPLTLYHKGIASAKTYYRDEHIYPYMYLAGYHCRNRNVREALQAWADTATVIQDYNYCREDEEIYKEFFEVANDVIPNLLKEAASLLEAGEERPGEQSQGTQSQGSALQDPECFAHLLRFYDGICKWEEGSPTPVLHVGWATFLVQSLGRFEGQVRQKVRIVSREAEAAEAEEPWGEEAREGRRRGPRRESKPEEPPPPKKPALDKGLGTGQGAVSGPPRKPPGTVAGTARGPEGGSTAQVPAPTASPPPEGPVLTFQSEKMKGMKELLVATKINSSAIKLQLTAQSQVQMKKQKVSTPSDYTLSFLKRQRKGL

## CC(=O)N[C@@H]1CCC[C@H]1C1(C2CCN(CC3CN(c4ccc(S(=O)(=O)c5ccncc5)cc4)C3)CC2)CN(C)Cc2ccccc21 (mixture of isomers) [compound 272, rac-N-((1R,2S)-2-(2-methyl-4-(1-((1-(4-(pyridin-4-ylsulfonyl)phenyl)azetidin-3-yl)methyl)piperidin-4-yl)-1,2,3,4-tetrahydroisoquinolin-4-yl)cyclopentyl)acetamide]
Menin protein
  IC50: 180 nM
[1]; [2]
  IC50: 2.97 µM
[1]; [3]
  IC50: 4.29 ± 1.45 µM

## CN(C)C(=O)N[C@H]1CCC[C@@H]1C(C#N)(c1ccccc1)C1CCN(CC2CN(c3ccc(S(=O)(=O)c4ccncc4)cc3)C2)CC1 (mixture of isomers) [compound 275, rac-3-((1S,2R)-2-(cyano(phenyl)(1-((1-(4-(pyridin-4-ylsulfonyl)phenyl)azetidin-3-yl)methyl)piperidin-4-yl)methyl)cyclopentyl)-1,1-dimethylurea]
Menin protein
  IC50: 12 nM
[1]; [2]
  IC50: 0.41 µM
[1]; [3]
  IC50: 0.45 µM

## CNC(=O)N[C@H]1CCC[C@@H]1C1(C2CCN(CC3CN(c4ccc(S(=O)(=O)c5ccncc5)cc4)C3)CC2)CN(C)Cc2ccccc21 (mixture of isomers) [compound 277, rac-1-methyl-3-((1S,2R)-2-(2-methyl-4-(1-((1-(4-(pyridin-4-ylsulfonyl)phenyl)azetidin-3-yl)methyl)piperidin-4-yl)-1,2,3,4-tetrahydroisoquinolin-4-yl)cyclopentyl)urea]
Menin protein
  IC50: 8 nM
[1]; [2]
  IC50: 0.43 µM
[1]; [3]
  IC50: 0.12 µM

## CNC(=O)N[C@@H]1CCC[C@H]1C1(C2CCN(CC3CN(c4ccc(S(=O)(=O)c5ccncc5)cc4)C3)CC2)CN(C)Cc2ccccc21 (mixture of isomers) [compound 278, rac-1-methyl-3-((1R,2S)-2-(2-methyl-4-(1-((1-(4-(pyridin-4-ylsulfonyl)phenyl)azetidin-3-yl)methyl)piperidin-4-yl)-1,2,3,4-tetrahydroisoquinolin-4-yl)cyclopentyl)urea]
Menin protein
  IC50: 296 nM
[1]; [2]
  IC50: 2.12 µM
[1]; [3]
  IC50: 2.27 µM

## CC(=O)N[C@H]1CCC[C@@H]1C(C#N)(c1ccccc1)C1CCN(CC2CN(c3ccc(S(=O)(=O)C4CC4)cc3)C2)CC1 (mixture of isomers) [compound 281, rac-N-((1S,2R)-2-(cyano(1-((1-(4-(cyclopropylsulfonyl)phenyl)azetidin-3-yl)methyl)piperidin-4-yl)(phenyl)methyl)cyclopentyl) acetamide]
Menin protein
  IC50: 29 nM
[1]; [2]
  IC50: 2.35 µM
[1]; [3]
  IC50: 0.55 µM

## CNC(=O)N[C@H]1CCC[C@@H]1C1(C2CCN(CC3CN(c4ccc(S(=O)(=O)C5CC5)cc4)C3)CC2)CN(C)Cc2ccccc21 (mixture of isomers) [compound 283, rac-1-((1S,2R)-2-(4-(1-((1-(4-(cyclopropylsulfonyl)phenyl)azetidin-3-yl)methyl)piperidin-4-yl)-2-methyl-1,2,3,4-tetrahydroisoquinolin-4-yl)cyclopentyl)-3-methylurea]
Menin protein
  IC50: 10 nM
[1]; [2]
  IC50: 0.53 µM
[1]; [3]
  IC50: 0.21 µM

## CNC(=O)N[C@H]1CCC[C@@H]1C1(C2CCN(CC3CN(c4ccc(S(=O)(=O)c5cnn(C)c5)cc4)C3)CC2)CN(C)Cc2ccccc21 (mixture of isomers) [compound 284, rac-1-methyl-3-((1S,2R)-2-(2-methyl-4-(1-((1-(4-((1-methyl-1H-pyrazol-4-yl)sulfonyl)phenyl)azetidin-3-yl)methyl)piperidin-4-yl)-1,2,3,4-tetrahydroisoquinolin-4-yl)cyclopentyl)urea]
Menin protein
  IC50: 11 nM
[1]; [2]
  IC50: > 10 µM
[1]; [3]
  IC50: 2.59 µM

## CNC(=O)N[C@H]1CCC[C@@H]1C1(C2CCN(CC3CN(c4ccc(S(=O)(=O)C5CC5)cc4)C3)CC2)CNCc2ccccc21 (mixture of isomers) [compound 285, rac-1-((1S,2R)-2-(4-(1-((1-(4-(cyclopropylsulfonyl)phenyl)azetidin-3-yl)methyl)piperidin-4-yl)-1,2,3,4-tetrahydroisoquinolin-4-yl)cyclopentyl)-3-methylurea]
Menin protein
  IC50: 9 nM
[1]; [2]
  IC50: 12.4 µM
[1]; [3]
  IC50: 2.48 µM

## CC(=O)N[C@H]1CCC[C@@H]1C1(C2CCN(CC3CN(c4ccc(S(=O)(=O)c5cnn(C)c5)cc4)C3)CC2)CNCc2ccccc21 (mixture of isomers) [compound 286, rac-N-((1S,2R)-2-(4-(1-((1-(4-((1-methyl-1H-pyrazol-4-yl)sulfonyl)phenyl)azetidin-3-yl)methyl)piperidin-4-yl)-1,2,3,4-tetrahydroisoquinolin-4-yl)cyclopentyl)acetamide]
Menin protein
  IC50: 4 nM
[1]; [2]
  IC50: 5.69 µM
[1]; [3]
  IC50: 0.48 µM

## CNC(=O)N[C@H]1CCC[C@@H]1C1(C2CCN(CC3CN(c4ccc(S(=O)(=O)C5CC5)cc4)C3)CC2)CN(C(C)C)Cc2ccccc21 (mixture of isomers) [compound 288, rac-1-((1S,2R)-2-(4-(1-((1-(4-(cyclopropylsulfonyl)phenyl)azetidin-3-yl)methyl)piperidin-4-yl)-2-isopropyl-1,2,3,4-tetrahydroisoquinolin-4-yl)cyclopentyl)-3-methylurea]
Menin protein
  IC50: 12 nM
[1]; [2]
  IC50: 48.8 µM
[1]; [3]
  IC50: 0.35 µM

## CCN1Cc2ccccc2C(C2CCN(CC3CN(c4ccc(S(=O)(=O)C5CC5)cc4)C3)CC2)([C@H]2CCC[C@@H]2NC(=O)NC)C1 (mixture of isomers) [compound 289, rac-1-((1S,2R)-2-(4-(1-((1-(4-(cyclopropylsulfonyl)phenyl)azetidin-3-yl)methyl)piperidin-4-yl)-2-ethyl-1,2,3,4-tetrahydroisoquinolin-4-yl)cyclopentyl)-3-methylurea]
Menin protein
  IC50: 4 nM
[1]; [2]
  IC50: 0.32 µM
[1]; [3]
  IC50: 0.17 µM

## CCN1Cc2ccccc2C(C2CCN(CC3CN(c4ccc(S(=O)(=O)c5ccccc5)cc4)C3)CC2)([C@H]2CCC[C@@H]2NC(=O)NC)C1 (mixture of isomers) [compound 290, rac-1-((1S,2R)-2-(2-ethyl-4-(1-((1-(4-(phenylsulfonyl)phenyl)azetidin-3-yl)methyl)piperidin-4-yl)-1,2,3,4-tetrahydroisoquinolin-4-yl)cyclopentyl)-3-methylurea]
Menin protein
  IC50: 9 nM
[1]; [2]
  IC50: 0.32 µM
[1]; [3]
  IC50: 0.11 µM

## CC(=O)O[C@H]1CCC[C@@H]1C1(C2CCN(CCCOc3ccc(C#N)cc3)CC2)CN(C)Cc2ccc(F)cc21 (mixture of isomers) [compound 314, rac-(1S,2R)-2-(4-(1-(3-(4-cyanophenoxy)propyl)piperidin-4-yl)-6-fluoro-2-methyl-1,2,3,4-tetrahydroisoquinolin-4-yl)cyclopentyl acetate]
Menin protein
  IC50: 31 nM
[1]; [2]
  IC50: > 10 µM
[1]; [3]
  IC50: 2.97 µM

## CC(=O)O[C@H]1CCC[C@@H]1C1(C2CCN(CC3CN(c4ccc(S(=O)(=O)C5CC5)cc4)C3)CC2)CN(C)Cc2ccc(F)cc21 (mixture of isomers) [compound 316, rac-(1S,2R)-2-(4-(1-((1-(4-(cyclopropylsulfonyl)phenyl)azetidin-3-yl)methyl)piperidin-4-yl)-6-fluoro-2-methyl-1,2,3,4-tetrahydroisoquinolin-4-yl)cyclopentyl acetate]
Menin protein
  IC50: 3 nM
[1]; [2]
  IC50: 1.8 µM
[1]; [3]
  IC50: 0.3 µM

## COC(=O)N[C@H]1CCC[C@@H]1C(C#N)(c1ccccc1)C1CCN(CC2CN(c3ccc(S(=O)(=O)C4CC4)cc3)C2)CC1 (mixture of isomers) [compound 319, rac-methyl ((1S,2R)-2-(cyano(1-((1-(4-(cyclopropylsulfonyl)phenyl)azetidin-3-yl)methyl)piperidin-4-yl)(phenyl)methyl)cyclopentyl)carbamate]
Menin protein
  IC50: 31 nM
[1]; [2]
  IC50: 2.77 µM
[1]; [3]
  IC50: 0.33 µM

## CNC(=O)N[C@H]1CCC[C@@H]1C(CN)(c1ccccc1)C1CCN(CC2CN(c3ccc(S(=O)(=O)c4ccccc4)cc3)C2)CC1 (mixture of isomers) [compound 321, rac-1-((1S,2R)-2-(2-amino-1-phenyl-1-(1-((1-(4-(phenylsulfonyl)phenyl)azetidin-3-yl)methyl)piperidin-4-yl)ethyl)cyclopentyl)-3-methylurea]
Menin protein
  IC50: 4 nM
[1]; [2]
  IC50: 1.25 µM
[1]; [3]
  IC50: 0.73 µM

## COC(=O)N[C@H]1CCC[C@@H]1C(C#N)(c1ccccc1)C1CCN(CC2CN(c3ccc(S(=O)(=O)c4ccccc4)cc3)C2)CC1 (mixture of isomers) [compound 347, methyl (rac-(1S,2R)-2-(cyano(phenyl)(1-((1-(4-(phenylsulfonyl)phenyl)azetidin-3-yl)methyl)piperidin-4-yl)methyl)cyclopentyl) carbamate]
Menin protein
  IC50: 14 nM
[1]; [2]
  IC50: 0.44 µM
[1]; [3]
  IC50: 0.36 µM

## COC(=O)N[C@H]1CCC[C@@H]1C(C#N)(c1ccccc1)C1CCN(CC2CN(c3ccc(S(=O)(=O)c4ccc(C(=O)O)cc4)cc3)C2)CC1 (mixture of isomers) [compound 351, rac-4-((4-(3-((4-(cyano((1R,2S)-2-((methoxycarbonyl)amino)cyclopentyl)(phenyl)methyl)piperidin-1-yl)methyl)azetidin-1-yl)phenyl)sulfonyl)benzoic acid]
Menin protein
  IC50: 15 nM
[1]; [2]
  IC50: 16.1 µM
[1]; [3]
  IC50: 3.02 µM

## CNC(=O)O[C@H]1CCC[C@@H]1C(Cn1cccc1)(c1ccccc1)C1CCN(CC2CN(c3ccc(S(=O)(=O)c4ccccc4)cc3)C2)CC1 (mixture of isomers) [compound 359, rac-(1S,2R)-2-(1-phenyl-1-(1-((1-(4-(phenylsulfonyl)phenyl)azetidin-3-yl)methyl)piperidin-4-yl)-2-(1H-pyrrol-1-yl)ethyl)cyclopentyl methylcarbamate]
Menin protein
  IC50: 12 nM
[1]; [2]
  IC50: 1.46 µM
[1]; [3]
  IC50: 0.43 µM
